Reference: US20110269828A1, “COMPOSITIONS AND METHODS FOR TREATING AND PREVENTING WEIGHT-RELATED DISORDERS IN COMPANION ANIMALS” (Hill's Pet Nutrition, Inc., priority 2008, published 2011)

How the values were obtained:
[1] = system: GSH:GSSG ratio; assay: Change in GSH:GSSG ratio in blood cells of dogs consuming DL-alpha lipoic acid in an extruded food; format: in vivo, dog
Source text: (§1) 30 adult, random source, dogs were utilized for this study. Dogs were at least 10 months of age, not pregnant, not lactating and of reasonable body weight prior to start of test. Animals were randomized into 5 groups for dietary treatment with 3 males and 3 females per each group.
All dogs were fed a control food (0 ppm dl-alpha-lipoic acid added) that met or exceeded all recommendations for nutrients as proposed by the American Association of Feed Control Officials (AAFCO 2000) during a 2 week prefeeding period (Table 2). Following the prefeeding period dogs were randomized into 5 treatment groups with one of the following dl-alpha lipoic acid target-inclusions (dry matter basis): 0 ppm, 150 ppm, 1500 ppm, 3000 ppm, 4500 ppm. In all diets, control and alpha lipoic acid, Vitamin E was added and was present at a level of 600-1000 International Units and Vitamin C was added at levels of 100-200 ppm.
Blood was collected aseptically for complete blood count, and blood biochemistry analysis 2 weeks prior to start and again at […], 56, 84, 112, 140 and 168 days of the study. In addition, 15 ml of whole blood was collected for isolation of lymphocytes at day 0, 28 and 84 of the dietary intervention.
Heparinized whole blood was layered onto a 50 ml Accuspin conical centrifuge tube (Sigma Chemical) and an equal volume of Phosphate buffered saline (PBS) was added. Samples were centrifuged at 700 g for 30 minutes without brake. The monocyte layer was harvested, transferred to a 15 ml conical centrifuge tube, resuspended in 1-3 ml of PB, and centrifuged as before (First wash). A second wash was performed as the first wash. Finally, cells were harvested and suspended in perchloric acid (10% w/v) and frozen at −70° C., until analysis.
Samples were transferred from −70° C. freezer into a cooler with dry ice in it. Vials were centrifuged at 12,000 rpm for 5 minutes in a refrigerated centrifuge. An aliquot of supernatant for glutathione (GSH) analysis was transferred to a conical test tube.
Derivatization of the acid soluble extracts was by the method of Reed and coworkers (Fariss et al) as modified by Jones (Jones et al)
Briefly, 150 μL extract or external standards were added into a 1.5 ml Eppendorf tube followed by addition of 20μγ-Glu-Glu internal standard and 50 μL IAA added followed by mixing. The solution was adjusted to pH about 10 (purple color) by using KOH—KHCO3 working solution. Solutions were incubated 1 hr, under room temperature in the dark. Sanger's reagent was added at the same volume as of the total volume and the solution was incubated overnight (20 hrs) in the dark at room temperature.
After incubation, the solution was centrifuged at 12000 rpm for 5 minutes with the supernatant transferred into another 1.5 ml eppendorf tube.
Solvents and separation conditions were as described (Fariss, Jones). Levels of GSH and GSSG were quantified relative to authentic standards. Gamma-glutamyl-glutamate was used as an internal standard to assess derivatization efficiency.
Comparison of values for clinical chemistry, hematology and body weights vs baseline were analyzed by way of paired t-test on SAS for windows with significance set at P<0.05. Means of values at each measured time point were separated by a one-way ANOVA with significance set at P<0.05. The difference in GSH:GSSG between day 84 and baseline were analyzed between groups by way of SAS for windows in a one-way ANOVA with significance set at P<0.05.

[2] = system: dogs; assay: 6 month feeding study of dl-alpha-lipoic acid in dogs: body weight, physical examination, safety; format: in vivo
Source text: as §1
All dogs were fed a control food (0 ppm dl-alpha-lipoic acid added) that met or exceeded all recommendations for nutrients as proposed by the American Association of Feed Control Officials (AAFCO 2000) during a 2 week prefeeding period (Table 2). […]
Test foods were the sole source of nutrients except for water. […] After dogs were selected and initial body weights taken, a food dose was calculated for each dog based on the expected ME of the food. Initial food dose calculations were based on the maintenance energy requirement (MER) for the dog modified by a factor to account for normal activity as calculated by the following formula: […]
Dogs were weighed weekly and had food doses adjusted as needed in order to feed enough food to maintain their optimal body weight. Optimal body weight was determined to be 3 on a 5 point scale. […] All measures of body weight and food intake were recorded. […]
Comparison of values for clinical chemistry, hematology and body weights vs baseline were analyzed by way of paired t-test on SAS for windows with significance set at P<0.05. […]

[3] = system: dogs; assay: Body composition (DEXA) of dogs over 90 days; format: in vivo, dog
Source text: 30 dogs were used to determine the effect of lipoic acid when compared to an AAFCO control food or a test food containing fish oil.
Table 9 illustrates Dual Energy X-Ray Absorptiometry (DEXA) measurement for dogs after being fed a control diet compared with dogs fed a pet food including lipoic acid for 90 days. The measurement of body fat using DEXA is more accurate than body weight for assessing health. A dog can have a lot of muscle, but be considered “over-weight” by many height/weight charts. The opposite can also be true—a dog can have a lot of fat and little muscle and be “over-fat” but not overweight.

[4] = system: plasma metabolites; assay: Metabolomics: fold change in metabolites measured in the blood at day 30; format: in vivo, dog
Description: Metabolomics: Plasma metabolites were analyzed and were compared as fold change relative to the control fed dogs.

[5] = system: genes related to cartilage and energy metabolism; assay: Differential gene expression profile in whole blood (canine 2 Affymetrix genechips); format: in vivo, dog
Source text: A differential gene expression profile was studied between an AAFCO control food, a food containing fish oil, and a food containing lipoic acid. At a minimum of 1.3 fold change, a list of 1212 genes was generated compared to the AAFCO control and 1896 genes compared to the food containing fish oil at d 30.
RNA extraction: Total RNAs were isolated from whole blood samples using the PAXgene RNA isolation kit. All measurements were done with the canine 2 Affymetrix genechips. For statistical analysis, all measurements were normalized with RMA. All analysis was preformed using Partek. An ANOVA t-test was performed for genes that are differentially expressed between the control and test foods were selected based on p-value cutoff 0.1, fold change >+/−1.3.

[6] = system: dogs; assay: Percentage of animals classifying genomically fat; format: in vivo, dog
Source text: Table 6 illustrates the percentage of dogs classified as genomically fat after being fed a control diet compared with dogs fed a control plus fish oil and a control plus lipoic acid for 30 days.

[7] = system: type II collagen C-propeptide and carboxy-terminal crosslinked telopeptide fragment of type II collagen; assay: Serum cartilage markers by ELISA; format: in vivo, dog; details: vs a similar food without lipoic acid, day 0 as covariate
Description: Biomarker measurements: Serum cartilage markers were measured using ELISA based kits to determine concentrations of cartilage markers. Day 0 was used as a covariate in the analysis to adjust for baseline values.

[8] = body composition over 90 days, dogs
[9] = dogs fed a food containing lipoic acid
[10] = day 30, day 0 values as covariate
[11] = lipoic acid vs. control, cartilage metabolism
[12] = lipoic acid vs. control, energy metabolism
[13] = lipoic acid vs. fish oil, cartilage metabolism
[14] = lipoic acid vs. fish oil, energy metabolism

O=C(O)CCCCC1CCSS1 (racemic) [Lipoic Acid, dl-alpha-lipoic acid]
Difference in GSH:GSSG ratio- day 0 to day 84 compared to baseline food ([1]; 150 ppm inclusion in extruded food, mean +/- spread): 70 +/− 20 | Difference in GSH:GSSG ratio- day 0 to day 84 compared to baseline food ([1]; 1,500 ppm inclusion in extruded food): 24 +/− 7 | Difference in GSH:GSSG ratio- day 0 to day 84 compared to baseline food ([1]; 3,000 ppm inclusion in extruded food): 10 +/− 4 | Difference in GSH:GSSG ratio- day 0 to day 84 compared to baseline food ([1]; 4,500 ppm inclusion in extruded food): 50 +/− 36 | Effect on GSH to GSSG ratio ([1]; chronic feeding in diet): improves the reduced glutathione (GSH) to oxidized glutathione (GSSG) ratio | Body weight ([2]; 4500 ppm inclusion group, change appeared to reverse by 6 months): some weight loss occurred initially | Chronic feeding in diet: safety ([2]; dog, in vivo): safe and effective | Change in weight ([3]; 90 day treatment period, vs control and control plus fish oil): greatest change in weight | Total Weight [3, 8]: 13,800 g | Total fat [3, 8]: 2788.3 g | Body fat [3, 9]: lost fat | Change in fat ([3]; over 90 days, dogs): -587.2 g | Change in weight ([3]; over 90 days, dogs): -637.5 g | Change in pyruvate blood levels ([4]; 30 day treatment period, vs control and control plus fish oil): greatest change in pyruvate blood levels | Kidney markers in blood ([4]; after 30 days, control plus lipoic acid): decreased kidney markers | Fold change in pyruvate measured in the blood, Lipoic acid vs Control [4, 10]: 0.5379 | Fold change in pyruvate measured in the blood, Lipoic acid vs Fish oil [4, 10]: 0.6274 | Plasma hydroxyproline [4, 9]: reduced in plasma | Fold change 12-lipooxygenase [5, 11]: −1.3 | Fold change Chondroitan sulfate synthase 1 [5, 11]: 1.4 | Fold change Facilitated glucose transporter 9 [5, 11]: 1.4 | Fold change Prolyl hydroxylase alpha 1 [5, 11]: 1.4 | Fold change Prolyl hydroxylase alpha 2 [5, 11]: 1.3 | Fold change TIMP1 [5, 11]: 1.3 | Fold change chondroitan sulfate proteoglycan 2 (veriscan) [5, 11]: 1.5 | Fold change heparan sulfate N-deacetylase/N-sulfotransferase 2 [5, 11]: 1.3 | Fold change 5′ AMP alpha 1 [5, 12]: 1.3 | Fold change 5′ AMP beta 1 [5, 12]: 1.3 | Fold change 5′ AMP gamma 2 [5, 12]: 1.4 | Fold change Facilitated glucose transporter 1 [5, 12]: 1.3 | Fold change Facilitated glucose transporter 6 [5, 12]: 1 .3 | Fold change Fatty acid desaturase 1 [5, 12]: 1.9 | Fold change Hexokinase 3 [5, 12]: 1.3 | Fold change PDK4 [5, 12]: 1.4 | Fold change PPAR gamma [5, 12]: 1.3 | Fold change Succinyl CoA ligase alpha [5, 12]: 1.3 | Fold change 12-lipooxygenase [5, 13]: −1.3 | Fold change ADAMTS-2 [5, 13]: −1.3 | Fold change ADAMTS-10 [5, 13]: −1.3 | Fold change ADAMTS-16 [5, 13]: −1.3 | Fold change Chondroitan sulfate synthase 1 [5, 13]: 1.3 | Fold change Facilitated glucose transporter 9 [5, 13]: 1.4 | Fold change Fibronectin 1 [5, 13]: 1.4 | Fold change Lysyl hydroxylase [5, 13]: 1.3 | Fold change MMP2 [5, 13]: −1.3 | Fold change MMP7 [5, 13]: −1.3 | Fold change N-acetylgalactosaminyltransferase 1 [5, 13]: 1.3 | Fold change Transforming growth factor beta receptor 1 [5, 13]: 1.3 | Fold change chondroitan sulfate proteoglycan 2 (veriscan) [5, 13]: 1.5 | Fold change 5′ AMP alpha 1 [5, 14]: 1.3 | Fold change 5′ AMP beta 1 [5, 14]: 1.3 | Fold change 5′ AMP gamma 2 [5, 14]: 1.5 | Fold change Facilitated glucose transporter 1 [5, 14]: 1.3 | Fold change Facilitated glucose transporter 6 [5, 14]: 1.4 | Fold change Hexokinase 3 [5, 14]: 1.3 | Fold change PDK4 [5, 14]: 1.6 | Fold change PPAR gamma [5, 14]: 1.3 | Fold change SREBP-1 [5, 14]: −1.3 | Fold change Succinyl CoA ligase alpha [5, 14]: 1.3 | Fold change Succinyl CoA ligase beta [5, 14]: 1.3 | Fold change cAMP responsice element modulator [5, 14]: 1.3 | Genomic resemblance to physically fat dogs ([6]; after a 30 day treatment period, control plus lipoic acid): genomically did not resemble physically fat dogs | Percentage of animals at d 30 that classified fat using genomic markers ([6]; d 30, dogs): 0% | Change in carboxy-terminal crosslinked telopeptide fragment of type II collagen [7]: greater decrease | Change in type II collagen C-propeptide [7]: greater decrease
